# Target: human Gal-3 (hGal-3) (Homo sapiens (Human), UniProt P17931)
# Assay: competitive binding assay: binding of biotinylated hGal-3 to microplate-adsorbed asialofetuin (ASF), spectrophotometric
# Conditions: Activity on hGal-3; mean values of several measurements
# How it was run: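 Compounds in DMSO dilution series competed with 300-1000 ng/mL biotinylated hGal-3 for asialofetuin adsorbed on the plate (3 h, 4° C). Streptavidin-peroxidase at 80 ng/mL (1 h, 4° C) with ABTS gave a spectrophotometric read-out, and IC50 was reported as the mean of repeat runs.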
# Sequence of human Gal-3 (hGal-3) (P17931 whole entry): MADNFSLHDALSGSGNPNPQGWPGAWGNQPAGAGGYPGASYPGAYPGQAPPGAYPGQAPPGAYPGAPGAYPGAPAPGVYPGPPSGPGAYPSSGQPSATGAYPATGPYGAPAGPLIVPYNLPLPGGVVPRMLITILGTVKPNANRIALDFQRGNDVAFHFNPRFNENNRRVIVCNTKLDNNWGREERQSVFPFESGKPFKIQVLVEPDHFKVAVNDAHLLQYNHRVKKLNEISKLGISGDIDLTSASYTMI
row,IC50 [nM],SMILES
1,312,"CO[C@@H]1[C@@H](n2cc(-c3ccc(Br)cc3)nn2)[C@@H](O)[C@@H](CO)O[C@H]1C(=O)N(c1cc(Cl)cc(C#N)c1)[C@@H]1CCC[C@H]1O [Example 1.19.4R, (2R,3R,4S,5R,6R)-4-(4-(4-bromophenyl)-1H-1,2,3-triazol-1-yl)-N-(3-chloro-5-cyanophenyl)-5-hydroxy-N-((1R,2R)-2-hydroxycyclopentyl)-6-(hydroxymethyl)-3-methoxytetrahydro-2H-pyran-2-carboxamide]"
2,25.7,"CO[C@@H]1[C@@H](n2cc(-c3ccc(F)c(F)c3F)nn2)[C@@H](O)[C@@H](CO)O[C@H]1C(=O)N(c1cc(Cl)cc(C#N)c1)[C@H]1CCC[C@@H]1O [Example 1.20.4, (2R,3R,4S,5R,6R)-N-(3-chloro-5-cyanophenyl)-5-hydroxy-N-((1S,2S)-2-hydroxycyclopentyl)-6-(hydroxymethyl)-3-methoxy-4-(4-(2,3,4-trifluorophenyl)-1H-1,2,3-triazol-1-yl)tetrahydro-2H-pyran-2-carboxamide]"
3,28.7,"CO[C@@H]1[C@@H](n2cc(-c3ccc(F)c(F)c3F)nn2)[C@@H](O)[C@@H](CO)O[C@H]1C(=O)N(c1cc(Br)cc(C#N)c1)[C@H]1CCC[C@@H]1O [Example 1.20.5, (2R,3R,4S,5R,6R)-N-(3-bromo-5-cyanophenyl)-5-hydroxy-N-((1S,2S)-2-hydroxycyclopentyl)-6-(hydroxymethyl)-3-methoxy-4-(4-(2,3,4-trifluorophenyl)-1H-1,2,3-triazol-1-yl)tetrahydro-2H-pyran-2-carboxamide]"
4,23,"CC(=O)O[C@@H]1[C@@H](n2cc(-c3cc(F)c(F)c(F)c3)nn2)[C@@H](O)[C@@H](CO)O[C@H]1C(=O)N(c1cc(Cl)cc(Cl)c1)[C@H]1CCC[C@@H]1O [Example 1A.1.2, (2R,3R,4S,5R,6R)-2-((3,5-dichlorophenyl)((1S,2S)-2-hydroxycyclopentyl)carbamoyl)-5-hydroxy-6-(hydroxymethyl)-4-(4-(3,4,5-trifluorophenyl)-1H-1,2,3-triazol-1-yl)tetrahydro-2H-pyran-3-yl acetate]"
5,25.3,"CC(=O)O[C@@H]1[C@@H](n2cc(-c3cc(F)c(F)c(F)c3)nn2)[C@@H](O)[C@@H](CO)O[C@H]1C(=O)N(c1cc(Cl)cc(C#N)c1)[C@H]1CCC[C@@H]1O [Example 1A.1.4, (2R,3R,4S,5R,6R)-2-((3-chloro-5-cyanophenyl)((1S,2S)-2-hydroxycyclopentyl)carbamoyl)-5-hydroxy-6-(hydroxymethyl)-4-(4-(3,4,5-trifluorophenyl)-1H-1,2,3-triazol-1-yl)tetrahydro-2H-pyran-3-yl acetate]"
6,12.9,"CC(=O)O[C@@H]1[C@@H](n2cc(-c3cc(F)c(C)c(F)c3)nn2)[C@@H](O)[C@@H](CO)O[C@H]1C(=O)N(c1cc(Cl)cc(Cl)c1)[C@H]1CCC[C@@H]1O [Example 1A.4.2, (2R,3R,4S,5R,6R)-2-((3,5-dichlorophenyl)((1S,2S)-2-hydroxycyclopentyl)carbamoyl)-4-(4-(3,5-difluoro-4-methylphenyl)-1H-1,2,3-triazol-1-yl)-5-hydroxy-6-(hydroxymethyl)tetrahydro-2H-pyran-3-yl acetate]"
7,26.8,"CC(=O)O[C@@H]1[C@@H](n2cc(-c3cc(F)c(C)c(F)c3)nn2)[C@@H](O)[C@@H](CO)O[C@H]1C(=O)N(c1cc(Cl)cc(C#N)c1)[C@H]1CCC[C@@H]1O [Example 1A.4.4, (2R,3R,4S,5R,6R)-2-((3-chloro-5-cyanophenyl)((1S,2S)-2-hydroxycyclopentyl)carbamoyl)-4-(4-(3,5-difluoro-4-methylphenyl)-1H-1,2,3-triazol-1-yl)-5-hydroxy-6-(hydroxymethyl)tetrahydro-2H-pyran-3-yl acetate]"
8,19.8,"CC(=O)O[C@@H]1[C@@H](n2cc(-c3cc(F)c(Cl)c(F)c3)nn2)[C@@H](O)[C@@H](CO)O[C@H]1C(=O)N(c1cc(Cl)cc(Cl)c1)[C@H]1CCC[C@@H]1O [Example 1A.5.2, (2R,3R,4S,5R,6R)-4-(4-(4-chloro-3,5-difluorophenyl)-1H-1,2,3-triazol-1-yl)-2-((3,5-dichlorophenyl)((1S,2S)-2-hydroxycyclopentyl)carbamoyl)-5-hydroxy-6-(hydroxymethyl)tetrahydro-2H-pyran-3-yl acetate]"
9,16.4,"CC(=O)O[C@@H]1[C@@H](n2cc(-c3cc(F)c(Cl)c(F)c3)nn2)[C@@H](O)[C@@H](CO)O[C@H]1C(=O)N(c1cc(Cl)cc(C#N)c1)[C@H]1CCC[C@@H]1O [Example 1A.5.4, (2R,3R,4S,5R,6R)-4-(4-(4-chloro-3,5-difluorophenyl)-1H-1,2,3-triazol-1-yl)-2-((3-chloro-5-cyanophenyl)((1S,2S)-2-hydroxycyclopentyl)carbamoyl)-5-hydroxy-6-(hydroxymethyl)tetrahydro-2H-pyran-3-yl acetate]"
10,28.9,"N#Cc1cc(Cl)cc(N(C(=O)[C@@H]2O[C@H](CO)[C@H](O)[C@H](n3cc(-c4cc(F)c(F)c(F)c4)nn3)[C@H]2O)[C@H]2CCC[C@@H]2O)c1 [Example 1H.1.4, (2R,3R,4S,5R,6R)-N-(3-chloro-5-cyanophenyl)-3,5-dihydroxy-N-((1S,2S)-2-hydroxycyclopentyl)-6-(hydroxymethyl)-4-(4-(3,4,5-trifluorophenyl)-1H-1,2,3-triazol-1-yl)tetrahydro-2H-pyran-2-carboxamide]"
11,22.7,"Cc1c(F)cc(-c2cn([C@H]3[C@@H](O)[C@@H](CO)O[C@@H](C(=O)N(c4cc(Cl)cc(Cl)c4)[C@H]4CCC[C@@H]4O)[C@@H]3O)nn2)cc1F [Example 1H.4.2, (2R,3R,4S,5R,6R)-N-(3,5-dichlorophenyl)-4-(4-(3,5-difluoro-4-methylphenyl)-1H-1,2,3-triazol-1-yl)-3,5-dihydroxy-N-((1S,2S)-2-hydroxycyclopentyl)-6-(hydroxymethyl)tetrahydro-2H-pyran-2-carboxamide]"
12,19.3,"Cc1c(F)cc(-c2cn([C@H]3[C@@H](O)[C@@H](CO)O[C@@H](C(=O)N(c4cc(Cl)cc(C#N)c4)[C@H]4CCC[C@@H]4O)[C@@H]3O)nn2)cc1F [Example 1H.4.4, (2R,3R,4S,5R,6R)-N-(3-chloro-5-cyanophenyl)-4-(4-(3,5-difluoro-4-methylphenyl)-1H-1,2,3-triazol-1-yl)-3,5-dihydroxy-N-((1S,2S)-2-hydroxycyclopentyl)-6-(hydroxymethyl)tetrahydro-2H-pyran-2-carboxamide]"
13,14.3,"O=C([C@@H]1O[C@H](CO)[C@H](O)[C@H](n2cc(-c3cc(F)c(Cl)c(F)c3)nn2)[C@H]1O)N(c1cc(Cl)cc(Cl)c1)[C@H]1CCC[C@@H]1O [Example 1H.5.2, (2R,3R,4S,5R,6R)-4-(4-(4-chloro-3,5-difluorophenyl)-1H-1,2,3-triazol-1-yl)-N-(3,5-dichlorophenyl)-3,5-dihydroxy-N-((1S,2S)-2-hydroxycyclopentyl)-6-(hydroxymethyl)tetrahydro-2H-pyran-2-carboxamide]"
14,109,"CO[C@@H]1[C@@H](n2cc(-c3cc(F)c(F)c(F)c3)nn2)[C@@H](O)[C@@H](CO)O[C@H]1C(=O)N(c1cccc(Cl)c1)[C@H]1CC[C@@H]1O [Example 2.1.1, (2R,3R,4S,5R,6R)-N-(3-chlorophenyl)-5-hydroxy-N-((1S,2S)-2-hydroxycyclobutyl)-6-(hydroxymethyl)-3-methoxy-4-(4-(3,4,5-trifluorophenyl)-1H-1,2,3-triazol-1-yl)tetrahydro-2H-pyran-2-carboxamide]"
15,4400,"CO[C@@H]1[C@@H](n2cc(-c3cc(F)c(F)c(F)c3)nn2)[C@@H](O)[C@@H](CO)O[C@H]1C(=O)N(c1cccc(Cl)c1)[C@@H]1CC[C@H]1O [Example 2.1.1R, (2R,3R,4S,5R,6R)-N-(3-chlorophenyl)-5-hydroxy-N-((1R,2R)-2-hydroxycyclobutyl)-6-(hydroxymethyl)-3-methoxy-4-(4-(3,4,5-trifluorophenyl)-1H-1,2,3-triazol-1-yl)tetrahydro-2H-pyran-2-carboxamide]"
16,118,"CO[C@@H]1[C@@H](n2cc(-c3cc(F)c(F)c(F)c3)nn2)[C@@H](O)[C@@H](CO)O[C@H]1C(=O)N(c1cc(C)cc(Cl)c1)[C@H]1CC[C@@H]1O [Example 2.1.3, (2R,3R,4S,5R,6R)-N-(3-chloro-5-methylphenyl)-5-hydroxy-N-((1S,2S)-2-hydroxycyclobutyl)-6-(hydroxymethyl)-3-methoxy-4-(4-(3,4,5-trifluorophenyl)-1H-1,2,3-triazol-1-yl)tetrahydro-2H-pyran-2-carboxamide]"
17,258,"CO[C@@H]1[C@@H](n2cc(-c3cc(F)c(F)c(F)c3)nn2)[C@@H](O)[C@@H](CO)O[C@H]1C(=O)N(c1cc(C)cc(Cl)c1)[C@@H]1CC[C@H]1O [Example 2.1.3R, (2R,3R,4S,5R,6R)-N-(3-chloro-5-methylphenyl)-5-hydroxy-N-((1R,2R)-2-hydroxycyclobutyl)-6-(hydroxymethyl)-3-methoxy-4-(4-(3,4,5-trifluorophenyl)-1H-1,2,3-triazol-1-yl)tetrahydro-2H-pyran-2-carboxamide]"

row,SMILES,IC50 [nM]
1,"CO[C@@H]1[C@@H](n2cc(-c3cc(F)c(F)c(F)c3)nn2)[C@@H](O)[C@@H](CO)O[C@H]1C(=O)N(c1cc(Cl)cc(Cl)c1)[C@H]1CC[C@@H]1O [Example 2.1.2, (2R,3R,4S,5R,6R)-N-(3,5-dichlorophenyl)-5-hydroxy-N-((1S,2S)-2-hydroxycyclobutyl)-6-(hydroxymethyl)-3-methoxy-4-(4-(3,4,5-trifluorophenyl)-1H-1,2,3-triazol-1-yl)tetrahydro-2H-pyran-2-carboxamide]",51.8
2,"CO[C@@H]1[C@@H](n2cc(-c3cc(F)c(F)c(F)c3)nn2)[C@@H](O)[C@@H](CO)O[C@H]1C(=O)N(c1cc(Cl)cc(Cl)c1)[C@@H]1CC[C@H]1O [Example 2.1.2R, (2R,3R,4S,5R,6R)-N-(3,5-dichlorophenyl)-5-hydroxy-N-((1R,2R)-2-hydroxycyclobutyl)-6-(hydroxymethyl)-3-methoxy-4-(4-(3,4,5-trifluorophenyl)-1H-1,2,3-triazol-1-yl)tetrahydro-2H-pyran-2-carboxamide]",110
